The results in this text go back to US12552846B2, “Modified BCL9 mimetic peptides” (Sapience Therapeutics, Inc., priority 2019, dated 2026).

A word on the EC50: it is the midpoint of the concentration-response curve. A higher EC50 goes with weaker potency.

In test [1] the test system is MCF7 breast cancer cells. The experiment in a line: MCF7 subcutaneous tumor model, tumor volume. In kind it is in vivo, NU/J mice. As for the experimental part:
In this experiment, we examined the effect of peptide BCL-26 on tumor volume in an MCF7 subcutaneous tumor model. Briefly, 2×10^6 MCF7 breast cancer cells, suspended 1:1 in Matrigel, were implanted via subcutaneous injection into the axilla of NU/J mice. Peptide BCL-26 was administered at a dose of 12.5 mg/kg via subcutaneous injection three times weekly for three weeks. Dosing was initiated on day 2 post tumor inoculation, with an average starting tumor volume of about 25 mm^3.
We also examined the effect of BCL9 mimetic peptides in established tumors. MCF7 cells were implanted into mice as described above. Peptide BCL-87 was administered at a dose of 5 mg/kg via subcutaneous injection three times weekly for three weeks. Dosing was initiated on day 21 post tumor inoculation, with an average starting tumor volume of about 470 mm^3.
We additionally examined the effect of different concentrations of mimetic peptides in established tumors. MCF7 cells were implanted into mice as described above. Peptides BCL-27 and BCL-87 were administered at a dose of 1 mg/kg or 5 mg/kg via subcutaneous injection three times weekly for three weeks. Dosing was initiated on day 14 post tumor inoculation, with an average starting tumor volume of about 340 mm^3.

The test system of test [2] is HL60 promyelocytic leukemia cells. The experiment in a line: Cytotoxicity assay in HL60 cells (Annexin V FITC / PI flow cytometry). The conditions noted are these: 48 hours, 0-80 μM, % Viability (Annexin V low, PI low). In kind it is cell-based. The procedure, abridged:
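HL60 cells at 3.5×10^3/well in RPMI + 1.5% FBS exposed to peptides at 0-80 μM final for 48 h at 37 °C. Viability by flow cytometry after Annexin V-FITC/PI staining, gated on FSC vs SSC. % Viability is the fraction that is Annexin V^low and PI^low.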

Each structure is given as a SMILES string. Square brackets hold non-standard residues; d marks the D form. Peptide text beside a SMILES is read from it. * marks the point of attachment. d1Nal = N[C@H](Cc1cccc2ccccc12)C(=O)O; dOrn = NCCC[C@@H](N)C(=O)O; Octanoyl = CCCCCCCC(=O)*

In the case of `CSCC[C@@H](NC(=O)[C@@H](CC(C)C)NC(=O)[C@H](N)Cc1ccccc1)C(=O)N[C@H](CCCNC(=N)N)C(=O)N[C@H](CCC(N)=O)C(=O)N[C@H](CC(C)C)C(=O)N[C@H](CC(=O)O)C(=O)N[C@H](CCCNC(=N)N)C(=O)N[C@H](CC(C)C)C(=O)N[C@@H](C(=O)N[C@H](CCC(N)=O)C(=O)N[C@H](CC(C)C)C(=O)N[C@H](C)C(=O)N[C@H](CCCCN)C(=O)N[C@H](CC(C)C)C(=O)N[C@@H](C(=O)N1CCC[C@@H]1C(=O)N[C@@H](C(=O)O)C(C)C)[C@H](C)O)[C@H](C)O` [BCL-26, FLMRQLDRLTQLAKLTPV] (H-[dF][dL][dM][dR][dQ][dL][dD][dR][dL][dT][dQ][dL][dA][dK][dL][dT][dP][dV]-OH; N-terminus and C-terminus assumed), the “tumor volume relative to vehicle” value in test [1] (12.5 mg/kg s.c. three times weekly for three weeks, dosing from day 2, starting tumor about 25 mm^3, p<0.0001) is “significantly reduced tumor volume”. Further, the EC50 in test [2] was over 10000 nM. With `CC(C)C[C@@H](NC(=O)[C@@H](CCCNC(=N)N)NC(=O)[C@@H](C)NC(=O)[C@@H](CC(C)C)NC(=O)[C@@H](CCC(N)=O)NC(=O)[C@@H](CCCNC(=N)N)NC(=O)[C@@H](C)NC(=O)[C@@H](CC(C)C)NC(=O)[C@@H](Cc1c[nH]c2ccccc12)NC(=O)[C@@H](Cc1c[nH]c2ccccc12)NC(=O)CNC(=O)[C@@H](CCCNC(=N)N)NC(=O)CNC(=O)[C@@H](CC(=O)O)NC(=O)[C@@H](CO)NC(=O)[C@H]1CCCN1)C(=O)N[C@H](C)C(=O)N[C@H](CCC(N)=O)C(=O)N[C@H](CC(C)C)C(=O)N[C@H](C)C(=O)N[C@H](CCCCN)C(=O)N[C@H](CC(C)C)C(=O)N[C@@H](C(=O)N1CCC[C@@H]1C(=O)N[C@@H](C(=O)O)C(C)C)[C@H](C)O` [BCL-87] (H-[dP][dS][dD]G[dR]G[dW][dW][dL][dA][dR][dQ][dL][dA][dR][dL][dA][dQ][dL][dA][dK][dL][dT][dP][dV]-OH; N-terminus and C-terminus assumed), the “tumor volume relative to vehicle and to peptide control BCL-134” value in test [1] (1 mg/kg or 5 mg/kg s.c. three times weekly for three weeks, dosing from day 14, starting tumor about 340 mm^3, p≤0.0004) is “significantly reduced tumor volume”. Also, the “tumor volume relative to vehicle” value in test [1] (5 mg/kg s.c. three times weekly for three weeks, dosing from day 21, starting tumor about 470 mm^3, p<0.005) was “significantly reduced tumor volume”. Further, the EC50 in test [2] fell in the range of 2000 to 10000 nM. Consider `CC(C)C[C@@H](NC(=O)[C@@H](Cc1c[nH]c2ccccc12)NC(=O)[C@H](N)Cc1c[nH]c2ccccc12)C(=O)N[C@H](C)C(=O)N[C@H](CCCNC(=N)N)C(=O)N[C@H](CCC(N)=O)C(=O)N[C@H](CC(C)C)C(=O)N[C@H](CCC(=O)O)C(=O)N[C@H](CCCNC(=N)N)C(=O)N[C@H](CC(C)C)C(=O)N[C@H](C)C(=O)N[C@H](CCCNC(=N)N)C(=O)N[C@H](CC(C)C)C(=O)N[C@H](C)C(=O)N[C@H](CCCCN)C(=O)N[C@H](CC(C)C)C(=O)N[C@@H](C(=O)N1CCC[C@@H]1C(=O)N[C@@H](C(=O)O)C(C)C)[C@H](C)O` [BCL-86] (H-[dW][dW][dL][dA][dR][dQ][dL][dE][dR][dL][dA][dR][dL][dA][dK][dL][dT][dP][dV]-OH; N-terminus and C-terminus assumed), for which the EC50 in test [2] is under 2000 nM.

`CC(C)C[C@@H](NC(=O)[C@@H](Cc1c[nH]c2ccccc12)NC(=O)[C@H](N)Cc1c[nH]c2ccccc12)C(=O)N[C@H](C)C(=O)N[C@H](CCCNC(=N)N)C(=O)N[C@H](CCC(N)=O)C(=O)N[C@H](CC(C)C)C(=O)N[C@H](CCC(=O)O)C(=O)N[C@H](CCCNC(=N)N)C(=O)N[C@H](CC(C)C)C(=O)N[C@H](C)C(=O)N[C@H](CCCCN)C(=O)N[C@H](CC(C)C)C(=O)N[C@H](C)C(=O)N[C@H](CCCCN)C(=O)N[C@H](CC(C)C)C(=O)N[C@@H](C(=O)N1CCC[C@@H]1C(=O)N[C@@H](C(=O)O)C(C)C)[C@H](C)O` [BCL-90] (H-[dW][dW][dL][dA][dR][dQ][dL][dE][dR][dL][dA][dK][dL][dA][dK][dL][dT][dP][dV]-OH; N-terminus and C-terminus assumed): the concentration for a half-maximal effect (EC50) in test [2] fell in the range of 2000 to 10000 nM. Still for that read-out and setting: the same measure for `CCCCCCCC(=O)N[C@H](Cc1c[nH]c2ccccc12)C(=O)N[C@H](Cc1c[nH]c2ccccc12)C(=O)N[C@H](CC(C)C)C(=O)N[C@@H](C(=O)N[C@H](CCCNC(=N)N)C(=O)N[C@H](CCC(N)=O)C(=O)N[C@H](CC(C)C)C(=O)N[C@H](C)C(=O)N[C@H](CCCNC(=N)N)C(=O)N[C@H](CC(C)C)C(=O)N[C@H](C)C(=O)N[C@H](CCC(N)=O)C(=O)N[C@H](CC(C)C)C(=O)N[C@H](C)C(=O)N[C@H](CCCCN)C(=O)N[C@H](CC(C)C)C(=O)N[C@@H](C(=O)N1CCC[C@@H]1C(=O)N[C@@H](C(=O)O)C(C)C)[C@H](C)O)C(C)C` [BCL-91b] (Octanoyl-[dW][dW][dL][dV][dR][dQ][dL][dA][dR][dL][dA][dQ][dL][dA][dK][dL][dT][dP][dV]-OH; C-terminus assumed): under 2000 nM. The same measure, in the same setting: to `CC(C)C[C@@H](NC(=O)[C@@H](C)NC(=O)[C@@H](C)NC(=O)[C@@H](CC(C)C)NC(=O)[C@@H](CCCNC(=N)N)NC(=O)[C@@H](C)NC(=O)[C@@H](CC(C)C)NC(=O)[C@@H](CCC(N)=O)NC(=O)[C@@H](CCCNC(=N)N)NC(=O)[C@@H](C)NC(=O)[C@@H](CC(C)C)NC(=O)[C@@H](Cc1c[nH]c2ccccc12)NC(=O)[C@H](Cc1c[nH]c2ccccc12)NC(=O)[C@H](N)Cc1ccccc1)C(=O)N[C@H](C)C(=O)N[C@H](CCCCN)C(=O)N[C@H](CC(C)C)C(=O)N[C@@H](C(=O)N1CCC[C@@H]1C(=O)N[C@@H](C(=O)O)C(C)C)[C@H](C)O` [BCL-132] (H-[dF]W[dW][dL][dA][dR][dQ][dL][dA][dR][dL][dA][dA][dL][dA][dK][dL][dT][dP][dV]-OH; N-terminus and C-terminus assumed) belongs under 2000 nM; to `CC(C)C[C@@H](NC(=O)[C@@H](Cc1c[nH]c2ccccc12)NC(=O)[C@H](N)Cc1cccc2ccccc12)C(=O)N[C@H](C)C(=O)N[C@H](CCCNC(=N)N)C(=O)N[C@H](CCC(N)=O)C(=O)N[C@H](CC(C)C)C(=O)N[C@H](C)C(=O)N[C@H](CCCNC(=N)N)C(=O)N[C@H](CC(C)C)C(=O)N[C@H](C)C(=O)N[C@H](CCC(N)=O)C(=O)N[C@H](CC(C)C)C(=O)N[C@H](C)C(=O)N[C@H](CCCCN)C(=O)N[C@H](CC(C)C)C(=O)N[C@@H](C(=O)N1CCC[C@@H]1C(=O)N[C@@H](C(=O)O)C(C)C)[C@H](C)O` [BCL-77] (H-[d1Nal][dW][dL][dA][dR][dQ][dL][dA][dR][dL][dA][dQ][dL][dA][dK][dL][dT][dP][dV]-OH; N-terminus and C-terminus assumed), under 2000 nM. On the same count and under the same terms, the same measure for `CC(C)C[C@@H](NC(=O)[C@@H](CCCNC(=N)N)NC(=O)[C@@H](C)NC(=O)[C@@H](CC(C)C)NC(=O)[C@@H](CCC(N)=O)NC(=O)[C@@H](CCCNC(=N)N)NC(=O)[C@H](NC(=O)[C@@H](CC(C)C)NC(=O)[C@@H](Cc1c[nH]c2ccccc12)NC(=O)[C@H](CCCNC(=N)N)NC(=O)[C@H](N)Cc1ccccc1)C(C)C)C(=O)N[C@H](C)C(=O)N[C@H](CCC(N)=O)C(=O)N[C@H](CC(C)C)C(=O)N[C@H](C)C(=O)N[C@H](CCCCN)C(=O)N[C@H](CC(C)C)C(=O)N[C@@H](C(=O)N1CCC[C@@H]1C(=O)N[C@@H](C(=O)O)C(C)C)[C@H](C)O` [BCL-130] (H-[dF]R[dW][dL][dV][dR][dQ][dL][dA][dR][dL][dA][dQ][dL][dA][dK][dL][dT][dP][dV]-OH; N-terminus and C-terminus assumed): under 2000 nM; for `CC(C)C[C@@H](NC(=O)[C@@H](Cc1c[nH]c2ccccc12)NC(=O)[C@@H](N)Cc1c[nH]c2ccccc12)C(=O)N[C@H](C)C(=O)N[C@H](CCCNC(=N)N)C(=O)N[C@H](CCC(N)=O)C(=O)N[C@H](CC(C)C)C(=O)N[C@H](CCC(=O)O)C(=O)N[C@H](CCCNC(=N)N)C(=O)N[C@H](CC(C)C)C(=O)N[C@H](CCCNC(=N)N)C(=O)N[C@H](CCCNC(=N)N)C(=O)N[C@H](CC(C)C)C(=O)N[C@H](C)C(=O)N[C@H](CCCCN)C(=O)N[C@H](CC(C)C)C(=O)N[C@@H](C(=O)N1CCC[C@@H]1C(=O)N[C@@H](C(=O)O)C(C)C)[C@H](C)O` [BCL-97] (H-W[dW][dL][dA][dR][dQ][dL][dE][dR][dL][dR][dR][dL][dA][dK][dL][dT][dP][dV]-OH; N-terminus and C-terminus assumed): under 2000 nM. Regarding `CC(C)C[C@@H](NC(=O)[C@@H](CCCN)NC(=O)[C@@H](C)NC(=O)[C@@H](CC(C)C)NC(=O)[C@@H](CCC(N)=O)NC(=O)[C@@H](CCCN)NC(=O)[C@@H](C)NC(=O)[C@@H](CC(C)C)NC(=O)[C@@H](Cc1c[nH]c2ccccc12)NC(=O)[C@@H](Cc1c[nH]c2ccccc12)NC(=O)CNC(=O)[C@@H](CCCNC(=N)N)NC(=O)CNC(=O)[C@@H](CC(=O)O)NC(=O)[C@@H](CO)NC(=O)[C@H]1CCCN1)C(=O)N[C@H](C)C(=O)N[C@H](CCC(N)=O)C(=O)N[C@H](CC(C)C)C(=O)N[C@H](C)C(=O)N[C@H](CCCN)C(=O)N[C@H](CC(C)C)C(=O)N[C@@H](C(=O)N1CCC[C@@H]1C(=O)N[C@@H](C(=O)O)C(C)C)[C@H](C)O` [BCL-137] (H-[dP][dS][dD]G[dR]G[dW][dW][dL][dA][dOrn][dQ][dL][dA][dOrn][dL][dA][dQ][dL][dA][dOrn][dL][dT][dP][dV]-OH; N-terminus and C-terminus assumed), the concentration giving a half-maximal response (EC50) in test [2] was under 2000 nM.
